# Data from patent US20170360781A1, “PHARMACEUTICAL COMPOSITION COMPRISING BICYCLIC NITROGEN-CONTAINING AROMATIC HETEROCYCLIC AMIDE COMPOUND AS ACTIVE INGREDIENT” (Astellas Pharma Inc., priority 2014, published 2017).
# Key:
# [1] = tested on: Human AML-derived KG-1 cells; assay: Anti-tumor test 1 on tumor-bearing mice transplanted with human AML-derived KG-1 cell; assay type: in vivo; details: KG-1, Balb/c nude mice, final measuring day
# Procedure: 4 week old male Balb/c nude mice (CHARLES RIVER LABORATORIES JAPAN, INC.) were injected and implanted, under the skin on the back, with 3×10^6 KG-1 cells, suspended to a mixed solution of PBS and Matrigel (registered trademark) in 1:1. After 16 days of implantation, administering of the test compounds was started. The test was performed on each of the 5 mice in the solvent group (6% cyclodextrin aqueous solution) and the test compound administered group (Test Compound Al was mixed to the solvent group by a dosage of 2, 4, or 8 mg/kg). The administration was performed once a day for 14 days by oral administration, and the body weight and the tumor diameter were measured twice a week. For calculation of the tumor volume, the formula below was used.
# (§1) [Tumor volume(mm^3)]=[major axis of tumor(mm)]×[minor axis of tumor(mm)]^2×0.5
# (§2) The inhibition rate of tumor growth and the rate of tumor regression were calculated from the average value of the tumor volume according to the formula below.
# (§3) Inhibition rate of tumor growth(%)=(1−average of tumor volume growth in each group/average of tumor volume growth in solvent group)×100
# (§4) Rate of tumor regression(%)=(1−average tumor volume in each group on measuring day/average tumor volume in each group when dividing groups)×100
# [2] = tested on: Human AML-derived MV-4-11 cells; assay: Anti-tumor test 2 on tumor-bearing mice transplanted with human AML-derived MV-4-11 cell; assay type: in vivo; details: MV-4-11, NOD/SCID mice, 14 days after starting the administration
# Procedure: 4 to 5 week old male NOD/SCID nude mice (CHARLES RIVER LABORATORIES JAPAN, INC.) were injected and implanted, under the skin on the back, with 5×10^6 MV-4-11 cells suspended to a mixed solution of PBS and Matrigel (registered trademark) in 1:1. Administering of the test compounds was started when tumor volume reached 100 to 250 mm^3. The test was performed on each of the 5 mice in the solvent group and the compound administered group. By oral administration, 6% cyclodextrin aqueous solution for the solvent group, and 6% cyclodextrin aqueous solution in which the test compound was mixed by the dosage shown in Table 8 for the compound administered group were administered. The administration was performed once a day by oral administration, and the body weight and the tumor diameter were measured twice a week. For calculation of the tumor volume, the formula below was used.
# as §1, §2, §3, §4
# The anti-tumor effect of Test Compounds A1, B1, C1, and D1 on the final measuring day (14 days after starting the administration) is shown in Table 8.
# [3] = tested on: DB cells derived from DLBCL; assay: Anti-tumor test 2 on mice tumor-bearing DLBCL-derived DB cells; assay type: in vivo; details: Balb/c nude mice, final measuring day
# Procedure: (§5) 4 to 5 week old male Balb/c nude mice (CHARLES RIVER LABORATORIES JAPAN, INC.) were injected and implanted, under the skin on the back, with 3×10^6 DB cells or SU-DHL-4 cells both derived from DLBCL suspended to a mixed solution of PBS and Matrigel (registered trademark) in 1:1. Dividing into groups was performed when tumor volume reached 100 to 250 mm^3, and administering of the test compounds was started. The test was performed on each of the 5 mice in the solvent group and the compound administered group. By oral administration, 6% cyclodextrin aqueous solution for the solvent group, and 6% cyclodextrin aqueous solution in which the test compound was mixed by the dosage shown in Table 10 for the compound administered group were administered. The administration was performed once a day for 21 days by oral administration, and the body weight and the tumor diameter were measured twice a week. For calculation of the tumor volume, the formula below was used.
# (§6) [Tumor volume(mm^3)]=[major axis of tumor(mm)]×[minor axis of tumor (mm)]^2×0.5
# as §2, §3, §4
# [4] = tested on: Human AML-derived MV-4-11 cells; assay: Anti-tumor test 1 on tumor-bearing mice transplanted with human AML-derived MV-4-11 cell; assay type: in vivo; details: MV-4-11, NOD/SCID mice, 8 mg/kg oral once a day for 19 days, final measuring day
# Procedure: 4 to 5 week old male NOD/SCID nude mice (CHARLES RIVER LABORATORIES JAPAN, INC.) were injected and implanted, under the skin on the back, with 5×10^6 MV-4-11 cells suspended to a mixed solution of PBS and Matrigel (registered trademark) in 1:1. After 7 days of implantation, administering of the test compounds was started. […] The administration was performed once a day for 19 days by oral administration, and the body weight and the tumor diameter were measured twice a week. For calculation of the tumor volume, the formula below was used.
# as §1
# (§7) The inhibition rate of tumor growth was calculated from the average value of the tumor volume according to the formula below.
# as §3
# [5] = tested on: PIK3CA mutation-positive Colo201 cells derived from human colorectal cancer; assay: Anti-tumor test 2 on mice tumor-bearing human colorectal cancer-derived Colo201 cells; assay type: in vivo; details: Colo201, Balb/c nude mice, final measuring day
# Procedure: (§8) 4 to 5 week old male Balb/c nude mice (CHARLES RIVER LABORATORIES JAPAN, INC.) were injected and implanted, under the skin on the back, with 3×10^6 PIK3CA mutation-positive and BRAF mutation-positive RKO cells, or 3×10^6 PIK3CA mutation-positive Colo201 cells, both derived from human colorectal cancer suspended to a mixed solution of PBS and Matrigel (registered trademark) in 1:1. Dividing into groups was performed when the tumor volume reached 100 to 250 mm^3, and administering of the test compounds was started. The test was performed on each of the 5 mice in the solvent group and the compound administered group. By oral administration, 6% cyclodextrin aqueous solution for the solvent group, and 6% cyclodextrin aqueous solution in which the test compound was mixed by the dosage shown in Table 4 for the compound administered group were administered. The administration was performed once a day for 11 days (RKO) or 21 days (Colo201), and the body weight and the tumor diameter were measured twice a week. For calculation of the tumor volume, the formula below was used.
# as §1, §7
# (§9) Inhibition rate of tumor growth(%)=([…]average of tumor volume growth in each group/average of tumor volume growth in solvent group)×100
# [6] = tested on: Human AML-derived KG-1 cells; assay: Anti-tumor test 2 on tumor-bearing mice transplanted with human AML-derived KG-1 cell; assay type: in vivo; details: KG-1, Balb/c nude mice, final measuring day
# Procedure: as §5, with “5 weeks” for “5 week”, “3×10^6 KG-1” for “3×10^6 DB”, “cells” for “cells or SU-DHL-4 cells both derived from DLBCL”, “to 200” for “to 250”, “Table 6” for “Table 10”, “21 days,” for “21 days by oral administration,”
# as §1, §2, §3, §4
# [7] = tested on: WSU-DLCL-2 cells derived from DLBCL; assay: Anti-tumor test 1 on mice tumor-bearing DLBCL-derived WSU-DLCL-2 cells; assay type: in vivo; details: WSU-DLCL-2, Balb/c nude mice, 8 mg/kg oral once a day for 17 days, final measuring day
# Procedure: (§10) 4 to 5 week old male Balb/c nude mice (CHARLES RIVER LABORATORIES JAPAN, INC.) were injected and implanted, under the skin on the back, with 3×10^6 DB cells or WSU-DLCL-2 cells both derived from DLBCL suspended to a mixed solution of PBS and Matrigel (registered trademark) in 1:1. Dividing into groups was performed when the average tumor volume reached 400 to 500 mm^3, and administering of the test compounds was started. […] The administration was performed once a day for 16 days (DB) or 17 days (WSU-DLCL-2) by oral administration, and the body weight and the tumor diameter were measured twice a week. For calculation of the tumor volume, the formula below was used.
# as §6
# (§11) The rate of tumor regression was calculated from the average value of the tumor volume according to the formula below.
# as §4
# [8] = tested on: PIK3CA mutation-positive Colo201 cells derived from human colorectal cancer; assay: Anti-tumor test 1 on mice tumor-bearing human colorectal cancer-derived Colo201 cells; assay type: in vivo; details: Colo201, Balb/c nude mice, 8 mg/kg oral once a day for 14 days, final measuring day
# Procedure: (§12) 5 to 6 week old male Balb/c nude mice (CHARLES RIVER LABORATORIES JAPAN, INC.) were injected and implanted, under the skin on the back, with 1.5×10^6 PIK3CA mutation-positive and BRAF mutation-positive RKO cells, or 3×10^6 PIK3CA mutation-positive Colo201 cells, both derived from human colorectal cancer suspended to a PBS solution or a mixed solution of PBS and Matrigel (registered trademark) in 1:1. Dividing into groups was performed when the tumor volume reached 100 to 300 mm^3, and administering of the test compounds was started. The test was performed on each of the 5 mice in a solvent group and a compound administered group. By oral administration, 6% cyclodextrin aqueous solution for the solvent group, and 6% cyclodextrin aqueous solution in which the test compound was mixed by 8 mg/kg for the compound administered group were administered. The administration was performed once a day for 10 days (RKO) or 14 days (Colo201), and the body weight and the tumor diameter were measured twice a week. For calculation of the tumor volume, the formula below was used.
# as §1
# (§13) The inhibition rate of tumor growth was calculated from the average value of the tumor volume according to the formula below. […]
# [9] = tested on: DB cells derived from DLBCL; assay: Anti-tumor test 1 on mice tumor-bearing DLBCL-derived DB cells; assay type: in vivo; details: Balb/c nude mice, 8 mg/kg oral once a day for 16 days, final measuring day
# Procedure: as §10, §6, §11, §4
# [10] = tested on: SU-DHL-4 cells derived from DLBCL; assay: Anti-tumor test 2 on mice tumor-bearing DLBCL-derived SU-DHL-4 cells; assay type: in vivo; details: SU-DHL-4, Balb/c nude mice, final measuring day
# Procedure: as §5, §6, §2, §3, §4
# [11] = tested on: PIK3CA mutation-positive and BRAF mutation-positive RKO cells derived from human colorectal cancer; assay: Anti-tumor test 1 on mice tumor-bearing human colorectal cancer-derived RKO cells; assay type: in vivo; details: Balb/c nude mice, 8 mg/kg oral once a day for 10 days, final measuring day
# Procedure: as §12, §1, §13
# [12] = tested on: PIK3CA mutation-positive and BRAF mutation-positive RKO cells derived from human colorectal cancer; assay: Anti-tumor test 2 on mice tumor-bearing human colorectal cancer-derived RKO cells; assay type: in vivo; details: Balb/c nude mice, final measuring day
# Procedure: as §8, §1, §7, §9
# [13] = target: Human Mitochondrial Complex I (Homo sapiens, UniProt O75251+O75306+P03886); assay: Evaluation on effect of inhibiting human mitochondrial Complex I (mitochondria from MDA-MB-453 tumor); assay type: biochemical; details: mitochondria extracted from MDA-MB-453 tumor; concentration in terms of freebase
# Procedure: A solution of 9 times the tumor weight for extraction of mitochondria (0.275 M Sucrose, 2.2 mM EDTA, 11 mM Tris/HCl, pH 7.5, Complete-EDTA-free (Roche Diagnostics)) was added thereto, and then the tumor was crushed. The centrifugation was performed at 600×g for 10 minutes at 4° C., the supernatant was obtained, and then the centrifugation was performed at 14,000×g for 10 minutes at 4° C., and therefore pellets were obtained. The pellets were suspended in 10 mM Tris/HCl pH 7.5 of 5 times the weight of the extracted tumor, and therefore a suspension of human mitochondria was obtained.
# Next, 25 or 50 μl of the suspension of human mitochondria was added per 1 ml of a liquid for measuring Complex I activity (25 mM potassium phosphate, pH 7.6, 0.35% Bovine Serum Albumin (BSA), 60 μM 2,6-dichlorophenol-indophenol, 70 μM decylubiquinone, 1 μM antimycin). After the solution was collected and added to a 96 or 384 well plate, a test compound was added to an arbitrary range from the final concentration of 10,000 nM to the final concentration of 0.3 nM. […] Furthermore, NADH was added to each well to the final concentration of 0.2 or 0.5 mM, and the change in absorbance at a wavelength of 600 nm was measured by using the SpectraMax (Molecular Devices, LLC.) set to 37° C. in advance. […]
# [14] = 8 mg/kg oral once a day for 21 days
# [15] = 8 mg/kg oral once a day for 11 days
# [16] = 1 mg/kg oral once a day for 21 days
# [17] = 1 mg/kg oral once a day for 11 days
compound,measurement,setting,value
"COc1ccc(CN2CCC(c3ccc4[nH]c(C(=O)N5CCN(Cc6ccc(C(F)(F)F)cc6)CC5)nc4c3)CC2)cn1 [Compound A1, (5-{1-[(6-methoxypyridin-3-yl)methyl]piperidin-4-yl}-1H-benzimidazol-2-yl){4-[4-(trifluoromethyl)benzyl]piperazin-1-yl}methanone]",Inhibition rate of tumor growth,[1]; 2 mg/kg oral once a day for 14 days,54% inhibition
same,Inhibition rate of tumor growth,[1]; 4 mg/kg oral once a day for 14 days,70% inhibition
same,Rate of tumor regression,[1]; 8 mg/kg oral once a day for 14 days,8% regression
same,Rate of tumor regression,[2]; 8 mg/kg oral once a day,70% regression
same,Regression rate DB,[3]; [14],66% regression
same,Inhibition rate of tumor growth,[4],96%
same,Inhibition rate Colo201,[5]; [14],53%
same,Inhibition rate of tumor growth,[6]; [14],99% inhibition
same,Regression rate,[7],72%
same,Inhibition rate of tumor growth,[8],60%
same,Regression rate,[9],67%
same,Inhibition rate SU-DHL-4,[10]; [14],64%
same,Inhibition rate of tumor growth,[11],67%
same,Inhibition rate RKO,[12]; [15],48%
"CCOc1cnc(CN2CCC(c3ccc4cc(C(=O)N5CCN(Cc6ccc(C#N)cc6)CC5)n(C)c4c3)CC2)cn1 [Compound C1, 4-({4-[(6-{1-[(5-ethoxypyrazin-2-yl)methyl]piperidin-4-yl}-1-methyl-1H-indol-2-yl)carbonyl]piperazin-1-yl}methyl)benzonitrile]",Rate of tumor regression,[2]; 1 mg/kg oral once a day,77% regression
same,Regression rate DB,[3]; [16],69% regression
same,Inhibition rate Colo201,[5]; [16],54%
same,Rate of tumor regression,[6]; [16],29% regression
same,Inhibition rate SU-DHL-4,[10]; [16],100%
same,Inhibition rate RKO,[12]; [17],58%
"COc1cnc(CN2CCC(c3ccc4[nH]c(C(=O)N5CCN(Cc6ccc(C(F)(F)F)cc6)CC5)nc4c3)CC2)cn1 [Compound B1, (5-{1-[(5-methoxypyrazin-2-yl)methyl]piperidin-4-yl}-1H-benzimidazol-2-yl){4-[4-(trifluoromethyl)benzyl]piperazin-1-yl}methanone]",Rate of tumor regression,[2]; 8 mg/kg oral once a day,76% regression
same,Regression rate DB,[3]; [14],92% regression
same,Inhibition rate Colo201,[5]; [14],52%
same,Rate of tumor regression,[6]; [14],31% regression
same,Inhibition rate SU-DHL-4,[10]; [14],87%
same,Inhibition rate RKO,[12]; [15],55%
"COc1cnc(CN2CCC(c3ccc4c(c3)cc(C(=O)N3CCN(Cc5ccc(C#N)cc5)CC3)n4C)CC2)cn1 [Compound D1, 4-({4-[(5-{1-[(5-methoxypyrazin-2-yl)methyl]piperidin-4-yl}-1-methyl-1H-indol-2-yl)carbonyl]piperazin-1-yl}methyl)benzonitrile]",Inhibition rate of tumor growth,[2]; 1 mg/kg oral once a day,90% inhibition
same,Inhibition rate DB,[3]; [16],96% inhibition
same,Inhibition rate Colo201,[5]; [16],45%
same,Inhibition rate of tumor growth,[6]; [16],95% inhibition
same,Inhibition rate SU-DHL-4,[10]; [16],40%
same,Inhibition rate RKO,[12]; [17],13%
same,IC50,[13],120 nM
